{
  "source": "patent US9707234B2",
  "about": "“Spirocyclic hetercycle compounds useful as HIV integrase inhibitors” (MERCK SHARP & DOHME CORP., priority 2013, dated 2017)",
  "data": [
    {"system": "HIV-1 (H9IIIB or NL4-3 virus) replication in MT4-GFP cells", "experiment": "microbe, parasite or virus in culture", "format": "cell-based", "details": "Human immunodeficiency virus 1, NL43, MT4-GFP cells infected with HIV-1; serum free conditions (0% NHS); inhibition of reproductive ratio R0, 48-72 h post-infection; read-out: ViKinG IP (nM) with 0% NHS", "units": {"IC50": "nM"}, "values": [
      {"smiles": "CCOCCN1C(=O)c2c(O)c(=O)c(C(=O)NCc3cccc(Cl)c3F)cn2CC12CCOC2", "note": "(single isomer, unassigned) [Compound 79]", "IC50": 2.3},
      {"smiles": "COCCCN1C(=O)c2c(O)c(=O)c(C(=O)NCc3ccc(F)cc3F)cn2CC12CCCOC2", "note": "(single isomer, unassigned) [Compound 85]", "IC50": 5.4},
      {"smiles": "CN1C(=O)c2c(O)c(=O)c(C(=O)NCc3ccc(F)c(Cl)c3)cn2N(C)C12CCOC2", "note": "(single isomer, unassigned) [Compound 107]", "IC50": 1.2},
      {"smiles": "CN1C(=O)c2c(O)c(=O)c(C(=O)NCc3ccc(F)c(Cl)c3F)cn2N(C)C12CCOC2", "note": "(single isomer, unassigned) [Compound 117]", "IC50": 0.5}
    ]},
    {"system": "HIV-1 (H9IIIB or NL4-3 virus) replication in MT4-GFP cells", "experiment": "microbe, parasite or virus in culture", "format": "cell-based", "details": "MT4-GFP cells infected with HIV-1; 100% normal human serum; inhibition of reproductive ratio R0, 48-72 h post-infection; read-out: ViKinG IP (nM) with 100% NHS", "units": {"IC50": "nM"}, "values": [
      {"smiles": "CCN1C(=O)c2c(O)c(=O)c(-c3nnc(Cc4ccc(F)cc4F)s3)cn2N(C)C12CCOC2", "note": "(single isomer, unassigned) [Compound 35]", "IC50": 133},
      {"smiles": "CCN1C(=O)c2c(O)c(=O)c(-c3nnc(Cc4ccc(F)cc4F)s3)cn2N(C)C12CCOC2", "note": "(single isomer, unassigned) [Compound 36]", "IC50": 368},
      {"smiles": "COCCN1C(=O)c2c(O)c(=O)c(C(=O)NCc3ccc(F)cc3F)cn2CC12CCOC2", "note": "(single isomer, unassigned) [Compound 50]", "IC50": 107},
      {"smiles": "CN1C(=O)c2c(O)c(=O)c(C(=O)NCc3ccc(F)cc3)cn2CC12CCOC2", "note": "(single isomer, unassigned) [Compound 60]", "IC50": 42},
      {"smiles": "CN1C(=O)c2c(O)c(=O)c(C(=O)NCc3ccc(F)c(Cl)c3)cn2CC12CCOC2", "note": "(single isomer, unassigned) [Compound 62]", "IC50": 72},
      {"smiles": "CN1C(=O)c2c(O)c(=O)c(C(=O)NCc3c(F)cc(F)cc3F)cn2CC12CCOC2", "note": "(single isomer, unassigned) [Compound 64]", "IC50": 26},
      {"smiles": "CN1C(=O)c2c(O)c(=O)c(C(=O)NCc3cccc(Cl)c3F)cn2CC12CCOC2", "note": "(single isomer, unassigned) [Compound 66]", "IC50": 40},
      {"smiles": "COCCN1C(=O)c2c(O)c(=O)c(C(=O)NCc3ccc(F)c(F)c3F)cn2CC12CCOC2", "note": "(single isomer, unassigned) [Compound 72]", "IC50": 290},
      {"smiles": "COCCCN1C(=O)c2c(O)c(=O)c(C(=O)NCc3ccc(F)cc3F)cn2CC12CCOC2", "note": "(single isomer, unassigned) [Compound 74]", "IC50": 28},
      {"smiles": "COCN1C(=O)c2c(O)c(=O)c(C(=O)NCc3ccc(F)cc3F)cn2CC12CCOC2", "note": "(single isomer, unassigned) [Compound 76]", "IC50": 151},
      {"smiles": "CCOCCN1C(=O)c2c(O)c(=O)c(C(=O)NCc3ccc(F)cc3F)cn2CC12CCOC2", "note": "(single isomer, unassigned) [Compound 78]", "IC50": 55},
      {"smiles": "CCOCCN1C(=O)c2c(O)c(=O)c(C(=O)NCc3cccc(Cl)c3F)cn2CC12CCOC2", "note": "(single isomer, unassigned) [Compound 79]", "IC50": 603},
      {"smiles": "CCOCCN1C(=O)c2c(O)c(=O)c(C(=O)NCc3cccc(Cl)c3F)cn2CC12CCOC2", "note": "(single isomer, unassigned) [Compound 80]", "IC50": 217},
      {"smiles": "COCCN1C(=O)c2c(O)c(=O)c(C(=O)NCc3ccc(F)cc3F)cn2CC12CCCOC2", "note": "(single isomer, unassigned) [Compound 84]", "IC50": 1960},
      {"smiles": "COCCCN1C(=O)c2c(O)c(=O)c(C(=O)NCc3ccc(F)cc3F)cn2CC12CCCOC2", "note": "(single isomer, unassigned) [Compound 85]", "IC50": 78},
      {"smiles": "COCCCN1C(=O)c2c(O)c(=O)c(C(=O)NCc3ccc(F)cc3F)cn2CC12CCCOC2", "note": "(single isomer, unassigned) [Compound 86]", "IC50": 177},
      {"smiles": "CN1C(=O)c2c(O)c(=O)c(C(=O)NCc3c(F)cc(F)cc3F)cn2N(C)C12CCOC2", "note": "(single isomer, unassigned) [Compound 106]", "IC50": 27},
      {"smiles": "CN1C(=O)c2c(O)c(=O)c(C(=O)NCc3ccc(F)c(Cl)c3)cn2N(C)C12CCOC2", "note": "(single isomer, unassigned) [Compound 107]", "IC50": 790},
      {"smiles": "CN1C(=O)c2c(O)c(=O)c(C(=O)NCc3ccc(F)c(Cl)c3)cn2N(C)C12CCOC2", "note": "(single isomer, unassigned) [Compound 108]", "IC50": 218},
      {"smiles": "CN1C(=O)c2c(O)c(=O)c(C(=O)NCc3cccc(Cl)c3F)cn2N(C)C12CCOC2", "note": "(single isomer, unassigned) [Compound 110]", "IC50": 121},
      {"smiles": "CN1C(=O)c2c(O)c(=O)c(C(=O)NCc3ccccc3F)cn2N(C)C12CCOC2", "note": "(single isomer, unassigned) [Compound 112]", "IC50": 231},
      {"smiles": "CN1C(=O)c2c(O)c(=O)c(C(=O)NCc3ccc(F)cc3)cn2N(C)C12CCOC2", "note": "(single isomer, unassigned) [Compound 114]", "IC50": 87},
      {"smiles": "CN1C(=O)c2c(O)c(=O)c(C(=O)NCc3c(F)cccc3F)cn2N(C)C12CCOC2", "note": "(single isomer, unassigned) [Compound 116]", "IC50": 42},
      {"smiles": "CN1C(=O)c2c(O)c(=O)c(C(=O)NCc3ccc(F)c(Cl)c3F)cn2N(C)C12CCOC2", "note": "(single isomer, unassigned) [Compound 117]", "IC50": 246}
    ]},
    {"system": "HIV-1 (H9IIIB or NL4-3 virus) replication in MT4-GFP cells", "experiment": "microbe, parasite or virus in culture", "format": "cell-based", "details": "MT4-GFP cells infected with HIV-1; serum free conditions (0% NHS); inhibition of reproductive ratio R0, 48-72 h post-infection; read-out: ViKinG IP (nM) with 0% NHS", "units": {"IC50": "nM"}, "values": [
      {"smiles": "CCN1C(=O)c2c(O)c(=O)c(-c3nnc(Cc4ccc(F)cc4F)s3)cn2N(C)C12CCOC2", "note": "(single isomer, unassigned) [Compound 35]", "IC50": 1.7},
      {"smiles": "CCN1C(=O)c2c(O)c(=O)c(-c3nnc(Cc4ccc(F)cc4F)s3)cn2N(C)C12CCOC2", "note": "(single isomer, unassigned) [Compound 36]", "IC50": 3.8},
      {"smiles": "COCCN1C(=O)c2c(O)c(=O)c(C(=O)NCc3ccc(F)cc3F)cn2CC12CCOC2", "note": "(single isomer, unassigned) [Compound 50]", "IC50": 3.1},
      {"smiles": "CN1C(=O)c2c(O)c(=O)c(C(=O)NCc3ccc(F)cc3)cn2CC12CCOC2", "note": "(single isomer, unassigned) [Compound 60]", "IC50": 3.1},
      {"smiles": "CN1C(=O)c2c(O)c(=O)c(C(=O)NCc3ccc(F)c(Cl)c3)cn2CC12CCOC2", "note": "(single isomer, unassigned) [Compound 62]", "IC50": 3.1},
      {"smiles": "CN1C(=O)c2c(O)c(=O)c(C(=O)NCc3c(F)cc(F)cc3F)cn2CC12CCOC2", "note": "(single isomer, unassigned) [Compound 64]", "IC50": 3.3},
      {"smiles": "CN1C(=O)c2c(O)c(=O)c(C(=O)NCc3cccc(Cl)c3F)cn2CC12CCOC2", "note": "(single isomer, unassigned) [Compound 66]", "IC50": 1.5},
      {"smiles": "COCCN1C(=O)c2c(O)c(=O)c(C(=O)NCc3ccc(F)c(F)c3F)cn2CC12CCOC2", "note": "(single isomer, unassigned) [Compound 72]", "IC50": 4.6},
      {"smiles": "COCCCN1C(=O)c2c(O)c(=O)c(C(=O)NCc3ccc(F)cc3F)cn2CC12CCOC2", "note": "(single isomer, unassigned) [Compound 74]", "IC50": 3.3},
      {"smiles": "COCN1C(=O)c2c(O)c(=O)c(C(=O)NCc3ccc(F)cc3F)cn2CC12CCOC2", "note": "(single isomer, unassigned) [Compound 76]", "IC50": 2.4},
      {"smiles": "CCOCCN1C(=O)c2c(O)c(=O)c(C(=O)NCc3ccc(F)cc3F)cn2CC12CCOC2", "note": "(single isomer, unassigned) [Compound 78]", "IC50": 2.3},
      {"smiles": "CCOCCN1C(=O)c2c(O)c(=O)c(C(=O)NCc3cccc(Cl)c3F)cn2CC12CCOC2", "note": "(single isomer, unassigned) [Compound 80]", "IC50": 1.7},
      {"smiles": "COCCN1C(=O)c2c(O)c(=O)c(C(=O)NCc3ccc(F)cc3F)cn2CC12CCCOC2", "note": "(single isomer, unassigned) [Compound 84]", "IC50": 4.5},
      {"smiles": "COCCCN1C(=O)c2c(O)c(=O)c(C(=O)NCc3ccc(F)cc3F)cn2CC12CCCOC2", "note": "(single isomer, unassigned) [Compound 86]", "IC50": 9.3},
      {"smiles": "CN1C(=O)c2c(O)c(=O)c(C(=O)NCc3c(F)cc(F)cc3F)cn2N(C)C12CCOC2", "note": "(single isomer, unassigned) [Compound 106]", "IC50": 0.6},
      {"smiles": "CN1C(=O)c2c(O)c(=O)c(C(=O)NCc3ccc(F)c(Cl)c3)cn2N(C)C12CCOC2", "note": "(single isomer, unassigned) [Compound 108]", "IC50": 1.1},
      {"smiles": "CN1C(=O)c2c(O)c(=O)c(C(=O)NCc3ccccc3F)cn2N(C)C12CCOC2", "note": "(single isomer, unassigned) [Compound 112]", "IC50": 0.9},
      {"smiles": "CN1C(=O)c2c(O)c(=O)c(C(=O)NCc3ccc(F)cc3)cn2N(C)C12CCOC2", "note": "(single isomer, unassigned) [Compound 114]", "IC50": 0.8},
      {"smiles": "CN1C(=O)c2c(O)c(=O)c(C(=O)NCc3c(F)cccc3F)cn2N(C)C12CCOC2", "note": "(single isomer, unassigned) [Compound 116]", "IC50": 0.7}
    ]}
  ]
}
